Results published in US20230097700A1, “AZETIDINE SULFONAMIDE COMPOUND” (DAIICHI SANKYO COMPANY, LIMITED, priority 2019, published 2023).
Counter-ions that a name gives are not always drawn.

System: activated T cells (CD4+ T cells derived from the mouse spleen)
Test: Incorporation of 3H-thymidine into activated T cells
Assay type: cell-based, mouse (C57BL/6J)
Conditions: 3H-thymidine incorporation, mouse spleen CD4+ T cells activated with Dynabeads Mouse T-Activator CD3/CD28
Protocol: Effect of a test substance on incorporation of ^3H-thymidine was evaluated using T cells derived from the mouse spleen. The spleen was excised out from a C57BL/6J mouse euthanized, cut into pieces, ground on a cell strainer (40 μm mesh) and centrifuged to collect spleen cells. CD4+ T cells were isolated from the spleen cells by use of EasySep Mouse CD4+ T cell isolation kit (STEMCELL Technologies). CD4+ T cells were seeded to a 96-well round-bottom plate. Test substance dissolved in DMSO (dimethyl sulfoxide) or vehicle (DMSO) was added to culture medium and Dynabeads Mouse T-Activator CD3/CD28 (Thermo Fisher Scientific Inc.) was added. Culture was carried out at 37° C. in 5% CO2. After culture was carried out for 24 hours, ^3H-thymidine (PerkinElmer) diluted with the culture medium was added to individual wells. Culture was further carried out overnight at 37° C. in 5% CO2. In order to measure ^3H-thymidine incorporated in nuclei of the cells, the cells were collected on a filter plate UniFilter-96 GF/B (PerkinElmer) by use of a FilterMate Universal Harvester (PerkinElmer). After the filter plate was placed in a dryer and allowed to stand still for 2 hours or more, scintillation cocktail MicroScint-O (PerkinElmer) was added and radioactivity was measured by TopCount NXT (PerkinElmer). With the radioactivity of a group not containing a test substance being specified as 100% and the radioactivity of a group not activated being specified as 0%, relative radioactivity values of individual wells to which the test substance was added (proliferation rate, % of vehicle) were calculated. The values of “% of vehicle” were entered in analysis software Prism (Version 4.03, GraphPad Software). “Nonlinear regression Log (inhibitor) vs reaction variable tilt” was selected and sigmoid type-fitting (Bottom=0, Top=100) was carried out to calculate 50% inhibition concentration (IC50). The compound of the present invention suppresses ^3H-thymidine incorporation in activated T cells.

SMILES	IC50
N[C@@H](Cc1cccc(S(=O)(=O)N2CC(Oc3ccc(F)cc3)(c3ccc(F)c(F)c3)C2)c1)C(=O)O [Example 37, (2S)-2-Amino-3-{3-[3-(3,4-difluorophenyl)-3-(4-fluorophenoxy)azetidin-1-sulfonyl]phenyl}propanoic acid monohydrochloride]	24 nM
N#Cc1ccc(OC2(c3ccc(F)c(F)c3)CN(S(=O)(=O)c3cccc(C[C@H](N)C(=O)O)c3)C2)cc1 [Example 38, (2S)-2-Amino-3-{3-[3-(4-cyanophenoxy)-3-(3,4-difluorophenyl)azetidin-1-sulfonyl]phenyl}propanoic acid monohydrochloride]	17 nM
NC(=O)c1ccc(OC2(c3ccc(F)c(F)c3)CN(S(=O)(=O)c3cccc(C[C@H](N)C(=O)O)c3)C2)cc1 [Example 39, (2S)-2-Amino-3-{3-[3-(4-carbamoylphenoxy)-3-(3,4-difluorophenyl)azetidin-1-sulfonyl]phenyl}propanoic acid monohydrochloride]	14 nM
Cc1cccc(OC2(c3ccccc3)CN(S(=O)(=O)c3cccc(C[C@H](N)C(=O)O)c3)C2)c1 [Example 43, (2S)-2-Amino-3-(3-{[3-(3-methylphenoxy)-3-phenylazetidin-1-yl]sulfonyl}phenyl)propanoic acid monohydrochloride]	18 nM
Cc1ccc(OC2(c3ccccc3)CN(S(=O)(=O)c3cccc(C[C@H](N)C(=O)O)c3)C2)cc1F [Example 45, (2S)-2-Amino-3-(3-{[3-(3-fluoro-4-methylphenoxy)-3-phenylazetidin-1-yl]sulfonyl}phenyl)propanoic acid monoformate]	23 nM
Cc1ccc(OC2(c3ccc(F)cc3)CN(S(=O)(=O)c3cccc(C[C@H](N)C(=O)O)c3)C2)cn1 [Example 46, (2S)-2-Amino-3-[3-({3-(4-fluorophenyl)-3-[(6-methylpyridin-3-yl)oxy]azetidin-1-yl}sulfonyl)phenyl]propanoic acid dihydrochloride]	31 nM
N[C@@H](Cc1cccc(S(=O)(=O)N2CC(Oc3ccc(F)cc3)(c3ccc(F)cn3)C2)c1)C(=O)O [Example 47, (2S)-2-Amino-3-(3-{[3-(4-fluorophenoxy)-3-(5-fluoropyridin-2-yl)azetidin-1-yl]sulfonyl}phenyl)propanoic acid dihydrochloride]	34 nM
CCc1ccc(OC2(c3ccc(F)cc3)CN(S(=O)(=O)c3cccc(C[C@H](N)C(=O)O)c3)C2)cn1 [Example 48, (2S)-2-Amino-3-[3-({3-[(6-ethylpyridin-3-yl)oxy]-3-(4-fluorophenyl)azetidin-1-yl}-sulfonyl)phenyl]propanoic acid dihydrochloride]	22 nM
Cc1ncc(OC2(c3ccc(F)cc3)CN(S(=O)(=O)c3cccc(C[C@H](N)C(=O)O)c3)C2)cc1F [Example 49, (2S)-2-Amino-3-[3-({3-[(5-fluoro-6-methylpyridin-3-yl)oxy]-3-(4-fluorophenyl)azetidin-1-yl}sulfonyl)phenyl]propanoic acid dihydrochloride]	36 nM
Cc1ccc(OC2(c3ccc(F)cn3)CN(S(=O)(=O)c3cccc(C[C@H](N)C(=O)O)c3)C2)cc1 [Example 50, (2S)-2-Amino-3-(3-{[3-(5-fluoropyridin-2-yl)-3-(4-methylphenoxy)azetidin-1-yl]sulfonyl}phenyl)propanoic acid dihydrochloride]	24 nM
N[C@@H](Cc1cccc(S(=O)(=O)N2CC(Oc3ccc(B(O)O)cc3)(c3ccccc3)C2)c1)C(=O)O [Example 52, (2S)-2-Amino-3-(3-{[3-(4-boronophenoxy)-3-phenylazetidin-1-yl]sulfonyl}phenyl)propanoic acid monoformate]	6.6 nM
N[C@@H](Cc1cccc(S(=O)(=O)N2CC(Oc3ccc(Cl)cc3)(c3ccc(Cl)cc3)C2)c1)C(=O)O [Example 53, (2S)-2-Amino-3-(3-{[3-(4-chlorophenoxy)-3-(4-chlorophenyl)azetidin-1-yl]sulfonyl}phenyl)propanoic acid monoformate]	8.7 nM
